Test results taken from ChEMBL document CHEMBL1123366, “Antiinflammatory and aldose reductase inhibitory activity of some tricyclic arylacetic acids” (J Med Chem, 1986).

Experiments:
[1] = species on record: Rattus norvegicus; assay: Inhibition of carrageenan-induced inflammation of rat paw relative to phenylbutazone.; assay type: functional
[2] = species on record: Mus musculus; assay: Analgesic activity in mice by mouse phenylquinone writhing assay relative to aspirin.; assay type: functional

SMILES | Activity [1] | Activity [2]
CC(C(=O)O)c1ccc2c(=O)c3ccccc3ccc2c1 (centres undefined) | 68 | 20
O=C1Cc2ccc3c(c2O1)CCc1ccccc1C3=O | 3 | ~1
O=C(O)Cc1cc(O)c2c(c1)CCc1ccccc1C2=O | ~20 | 4
O=C(O)Cc1ccc2c(c1)CCc1cccc(O)c1C2=O | <0.2 | >=0.4
O=C(O)Cc1ccc2c(c1)CCc1ccc(O)cc1C2=O | <0.2 | ~0.2
O=C(O)Cc1ccc2c(c1)CCc1ccccc1C2=O | 7 | 1.5
O=C(O)Cc1ccc2c(c1O)CCc1ccccc1C2=O | 15 | ~8
O=C(O)Cc1ccc2c(c1)CCc1cc(O)ccc1C2=O | ~0.4 | ~0.6
CC(C(=O)O)c1cc(O)c2c(=O)c3ccccc3ccc2c1 (centres undefined) | ~30 | ~6
O=C(O)Cc1cc(O)c2c(=O)c3ccccc3ccc2c1 | 5 | ~1
O=C(O)Cc1ccc2c(=O)c3ccccc3ccc2c1 | 6 | 2
CC(C(=O)O)c1cc(O)c2c(c1)CCc1ccccc1C2=O (centres undefined) | ~60 | 4
O=C(O)c1ccccc1Nc1cccc(C(F)(F)F)c1 [FLUFENAMIC ACID] | ~6 | <0.4
COc1ccc2c(c1)c(CC(=O)O)c(C)n2C(=O)c1ccc(Cl)cc1 [INDOMETHACIN] | 16 | 60
CC(C(=O)O)c1cccc(C(=O)c2ccccc2)c1 (centres undefined) [KETOPROFEN] | 9 | 60
O=C(O)Cc1ccc2c(c1)OCc1ccccc1C2=O [OXEPINAC] | ~15 | 4
O=C(O)Cc1ccc2c(c1)SCc1ccccc1C2=O [TIOPINAC] | 40 | 14
